Calls of active or inactive are those of the source. No cut-off for these calls is given here.
Columns and labels:
[1] = system: HepG2; assay: Cytotoxicity against Homo sapiens (human) HepG2 cells at 40 uM after 72 hr by SRB assay; type: functional
[2] = system: HeLa; assay: Cytotoxicity against Homo sapiens (human) HeLa cells at 40 uM after 72 hr by SRB assay; type: functional
[3] = system: MCF7; assay: Cytotoxicity against Homo sapiens (human) MCF7 cells at 20 uM after 72 hr by SRB assay; type: functional, cell-based
[4] = system: HepG2; assay: Induction of cell cycle arrest in Homo sapiens (human) HepG2 cells assessed as S phase cells at 55 uM at 24 hr by flow cytometric analysis (reference value: 46.4 +/- 3.6 cells); type: functional
[5] = system: HepG2; assay: Induction of cell cycle arrest in Homo sapiens (human) HepG2 cells assessed as increase in G0/G1 phase cells at 55 uM at 48 hr by flow cytometric analysis relative to control; type: functional
[6] = system: HepG2; assay: Induction of cell cycle arrest in Homo sapiens (human) HepG2 cells assessed as G2/M phase cells at 55 uM at 16 hr by flow cytometric analysis (reference value: 4 +/- 0.9 cells); type: functional
[7] = system: HCT-116; assay: Induction of cell cycle arrest in Homo sapiens (human) HCT116 cells assessed as G2/M phase cells at 52.3 uM at 24 hr by flow cytometric analysis (reference value: 9.7 +/- 0.8 cells); type: functional
[8] = system: HCT-116; assay: Induction of cell cycle arrest in Homo sapiens (human) HCT116 cells assessed as S phase cells at 52.3 uM at 16 hr by flow cytometric analysis (reference value: 33.6 +/- 0.6 cells); type: functional
[9] = system: HCT-116; assay: Antiangiogenic activity against Homo sapiens (human) HCT116 cells assessed as reduction in VEGF level at 52.3 uM after 48 hr by ELISA relative to control; type: functional; design: scale not given: the % may be the effect or the level left
[10] = system: HCT-116; assay: Cytotoxicity against Homo sapiens (human) HCT116 cells at 20 uM after 72 hr by SRB assay; type: functional, cell-based
[11] = system: HCT-116; assay: Induction of cell cycle arrest in Homo sapiens (human) HCT116 cells assessed as G2/M phase cells at 52.3 uM at 16 hr by flow cytometric analysis (reference value: 9.7 +/- 0.8 cells); type: functional
[12] = system: HepG2; assay: Induction of apoptosis in Homo sapiens (human) HepG2 cells assessed as caspase9 cleavage at 55 uM at 16 hr by Western blot analysis; type: functional, cell-based
[13] = system: HCT-116; assay: Cytotoxicity against Homo sapiens (human) HCT116 cells assessed as DNA fragmentation at […] after 48 hr by agarose gel electrophoresis; type: functional, cell-based
[14] = system: HCT-116; assay: Induction of cell cycle arrest in Homo sapiens (human) HCT116 cells assessed as increase in G0/G1 phase cells at 52.3 uM at 48 hr by flow cytometric analysis relative to control; type: functional
[15] = system: HCT-116; assay: Cytotoxicity against Homo sapiens (human) HCT116 cells after 24 to 72 hr by SRB assay; type: functional, cell-based
[16] = system: HepG2; assay: Cytotoxicity against Homo sapiens (human) HepG2 cells after 48 hr by SRB assay; type: functional, cell-based; conditions: HepG2, 48 h
[17] = system: HepG2; assay: Induction of cell cycle arrest in Homo sapiens (human) HepG2 cells assessed as S phase cells at 55 uM at 48 hr by flow cytometric analysis (reference value: 46.4 +/- 3.6 cells); type: functional
[18] = system: MCF7; assay: Cytotoxicity against Homo sapiens (human) MCF7 cells at 100 uM after 24 hr by SRB assay; type: functional
[19] = system: HepG2; assay: Cytotoxicity against Homo sapiens (human) HepG2 cells after 24 to 72 hr by SRB assay; type: functional, cell-based
[20] = system: HCT-116; assay: Cytotoxicity against Homo sapiens (human) HCT116 cells at 20 to 100 uM by SRB assay; type: functional, cell-based; conditions: TDE = time-dependent effect
[21] = system: HepG2; assay: Induction of cell cycle arrest in Homo sapiens (human) HepG2 cells assessed as G2/M phase cells at 55 uM at 48 hr by flow cytometric analysis (reference value: 4 +/- 0.9 cells); type: functional
[22] = system: MCF7; assay: Cytotoxicity against Homo sapiens (human) MCF7 cells at 40 uM after 48 hr by SRB assay; type: functional
[23] = system: HepG2; assay: Cytotoxicity against Homo sapiens (human) HepG2 cells at 20 uM after 72 hr by SRB assay; type: functional, cell-based
[24] = system: HCT-116; assay: Induction of cell cycle arrest in Homo sapiens (human) HCT116 cells assessed as G2/M phase cells at 52.3 uM at 48 hr by flow cytometric analysis (reference value: 9.7 +/- 0.8 cells); type: functional
[25] = system: HCT-116; assay: Cytotoxicity against Homo sapiens (human) HCT116 cells after 48 hr by SRB assay; type: functional, cell-based; conditions: HCT-116, 48 h
[26] = system: HepG2; assay: Induction of apoptosis in Homo sapiens (human) HepG2 cells assessed as effect on Bcl2 level at 55 uM from 3 to 24 hr by Western blot analysis; type: functional, cell-based
[27] = system: HeLa; assay: Cytotoxicity against Homo sapiens (human) HeLa cells after 24 to 72 hr by SRB assay; type: functional, cell-based
[28] = system: HCT-116; assay: Induction of cell cycle arrest in Homo sapiens (human) HCT116 cells assessed as S phase cells at 52.3 uM at 24 hr by flow cytometric analysis (reference value: 33.6 +/- 0.6 cells); type: functional
[29] = system: HepG2; assay: Cytotoxicity against Homo sapiens (human) HepG2 cells at 100 uM after 24 hr by SRB assay; type: functional
[30] = system: MCF7; assay: Cytotoxicity against Homo sapiens (human) MCF7 cells after 24 to 72 hr by SRB assay; type: functional, cell-based
[31] = system: HCT-116; assay: Induction of apoptosis in Homo sapiens (human) HCT116 cells assessed as caspase9 cleavage at 52.3 uM at 16 hr by Western blot analysis; type: functional, cell-based
[32] = system: HeLa; assay: Cytotoxicity against Homo sapiens (human) HeLa cells at 20 to 100 uM by SRB assay; type: functional, cell-based; conditions: TDE = time-dependent effect
[33] = system: HCT-116; assay: Induction of cell cycle arrest in Homo sapiens (human) HCT116 cells assessed as S phase cells at 52.3 uM at 48 hr by flow cytometric analysis (reference value: 33.6 +/- 0.6 cells); type: functional
[34] = system: HCT-116; assay: Antiangiogenic activity against Homo sapiens (human) HCT116 cells assessed as reduction in VEGF level at 52.3 uM after 24 hr by ELISA relative to control; type: functional; design: scale not given: the % may be the effect or the level left
[35] = system: HepG2; assay: Induction of cell cycle arrest in Homo sapiens (human) HepG2 cells assessed as G2/M phase cells at 55 uM at 24 hr by flow cytometric analysis (reference value: 4 +/- 0.9 cells); type: functional
[36] = system: HepG2; assay: Induction of cell cycle arrest in Homo sapiens (human) HepG2 cells assessed as S phase cells at 55 uM at 16 hr by flow cytometric analysis (reference value: 46.4 +/- 3.6 cells); type: functional
[37] = system: HeLa; assay: Cytotoxicity against Homo sapiens (human) HeLa cells at 20 uM after 72 hr by SRB assay; type: functional, cell-based
[38] = system: HCT-116; assay: Induction of cell cycle arrest in Homo sapiens (human) HCT116 cells assessed as G0/G1 phase cells at 52.3 uM at 16 hr by flow cytometric analysis (reference value: 58.2 +/- 3.7 cells); type: functional
[39] = system: HepG2; assay: Antiangiogenic activity against Homo sapiens (human) HepG2 cells assessed as reduction in VEGF level at 55 uM from 24 to 48 hr by ELISA relative to control; type: functional, cell-based
[40] = system: HepG2; assay: Induction of cell cycle arrest in Homo sapiens (human) HepG2 cells assessed as G0/G1 phase cells at 55 uM at 16 hr by flow cytometric analysis (reference value: 50.4 +/- 1.7 cells); type: functional
[41] = system: HCT-116; assay: Induction of apoptosis in Homo sapiens (human) HCT116 cells assessed as effect on Bcl2 level at 52.3 uM from 3 to 24 hr by Western blot analysis; type: functional, cell-based
[42] = system: HCT-116; assay: Cytotoxicity against Homo sapiens (human) HCT116 cells at 100 uM after 24 hr by SRB assay; type: functional
[43] = system: HepG2; assay: Induction of cell cycle arrest in Homo sapiens (human) HepG2 cells assessed as increase in G0/G1 phase cells at 55 uM at 24 hr by flow cytometric analysis relative to control; type: functional
[44] = system: HepG2; assay: Cytotoxicity against Homo sapiens (human) HepG2 cells assessed as DNA fragmentation at 55 uM from 24 to 48 hr by agarose gel electrophoresis; type: functional, cell-based
[45] = system: HCT-116; assay: Induction of cell cycle arrest in Homo sapiens (human) HCT116 cells assessed as increase in G0/G1 phase cells at 52.3 uM at 24 hr by flow cytometric analysis relative to control; type: functional
[46] = system: MCF7; assay: Cytotoxicity against Homo sapiens (human) MCF7 cells at 20 to 100 uM by SRB assay; type: functional, cell-based; conditions: TDE = time-dependent effect
[47] = system: HCT-116; assay: Cytotoxicity against Homo sapiens (human) HCT116 cells at 40 uM after 72 hr by SRB assay; type: functional
[48] = system: HeLa; assay: Cytotoxicity against Homo sapiens (human) HeLa cells at 100 uM after 24 hr by SRB assay; type: functional
[49] = system: HepG2; assay: Cytotoxicity against Homo sapiens (human) HepG2 cells at 20 to 100 uM by SRB assay; type: functional, cell-based; conditions: TDE = time-dependent effect

Cc1c(C)c2c(c(C)c1OC(=O)CCC(=O)O)CC[C@@](C)(CCC[C@H](C)CCC[C@H](C)CCCC(C)C)O2 [(+)-ALPHA-TOCOPHERYL SUCCINATE]
Activity [1]: 15% | Activity [2]: 20% | Activity [3]: inactive | Activity [4]: 33.01% | Activity [5]: 62.1% | Activity [6]: 2.9% | Activity [7]: 4.4% | Activity [8]: 32.7% | Activity [9]: 54% | Activity [10]: inactive | Activity [11]: 9.5% | Activity [12]: Active | Activity [13]: Active | Activity [14]: 47.3% | Activity [15]: Dose-dependent effect | IC50 [16]: 55 µM | Activity [17]: 15.4% | Activity [18]: 45% | Activity [19]: Dose-dependent effect | Activity [20]: tde | Activity [21]: 1.8% | Activity [22]: 14% | Activity [23]: inactive | Activity [24]: 2.7% | IC50 [25]: 52.3 µM | Activity [26]: inactive | Activity [27]: Dose-dependent effect | Activity [28]: 19.9% | Activity [29]: 55% | Activity [30]: Dose-dependent effect | Activity [31]: Active | Activity [32]: tde | Activity [33]: 13.4% | Activity [34]: 39% | Activity [35]: 2.1% | Activity [36]: 38.4% | Activity [37]: inactive | Activity [38]: 58.7% | Activity [39]: Active | Activity [40]: 60% | Activity [41]: inactive | Activity [42]: 47% | Activity [43]: 27.4% | Activity [44]: Active | Activity [45]: 32.3% | Activity [46]: tde | Activity [47]: 48% | Activity [48]: 65% | Activity [49]: tde

— ChEMBL document CHEMBL3046193, “Promising antitumor effect of alpha-tocopheryl succinate in human colon and liver cancer cells” (Med Chem Res, 2012)
